Data reported in ChEMBL document CHEMBL4304831, “Chalcone-Thiazole Hybrids: Rational Design, Synthesis, and Lead Identification against 5-Lipoxygenase” (ACS Med Chem Lett, 2019).

T1: Polyunsaturated fatty acid 5-lipoxygenase (Homo sapiens) (UniProt P09917)
T1 sequence (whole entry): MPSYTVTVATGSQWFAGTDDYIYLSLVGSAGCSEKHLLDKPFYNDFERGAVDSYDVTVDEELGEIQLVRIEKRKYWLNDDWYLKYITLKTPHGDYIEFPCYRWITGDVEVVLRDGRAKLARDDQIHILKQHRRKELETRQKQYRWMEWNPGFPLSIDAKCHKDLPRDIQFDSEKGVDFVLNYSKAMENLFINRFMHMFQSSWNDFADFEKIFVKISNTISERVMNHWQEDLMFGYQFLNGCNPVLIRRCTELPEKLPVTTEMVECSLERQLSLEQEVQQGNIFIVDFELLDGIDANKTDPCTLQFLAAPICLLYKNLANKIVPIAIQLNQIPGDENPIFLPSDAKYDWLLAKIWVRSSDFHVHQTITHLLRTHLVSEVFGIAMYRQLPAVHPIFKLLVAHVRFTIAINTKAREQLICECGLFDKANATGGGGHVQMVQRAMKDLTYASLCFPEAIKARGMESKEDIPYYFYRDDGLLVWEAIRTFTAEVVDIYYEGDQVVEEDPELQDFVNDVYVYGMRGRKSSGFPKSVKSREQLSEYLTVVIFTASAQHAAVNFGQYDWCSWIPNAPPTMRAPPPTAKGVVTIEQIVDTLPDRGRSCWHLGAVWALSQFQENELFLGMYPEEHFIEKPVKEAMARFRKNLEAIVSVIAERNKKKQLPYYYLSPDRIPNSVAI

T2: Polyunsaturated fatty acid 5-lipoxygenase (Homo sapiens, UniProt P09917)
T2 sequence (P09917 whole entry): T1 sequence (whole entry)

B1: Polyunsaturated fatty acid 5-lipoxygenase (Homo sapiens), P09917 (protein)
chain: T1 sequence (whole entry)

Experiments:
[1] = Antioxidant activity assessed as DPPH radical scavenging activity at 10 uM after 30 mins under dark condition relative to control; assay type: functional
[2] = target: T1, Polyunsaturated fatty acid 5-lipoxygenase (Homo sapiens); assay: Inhibition of human recombinant 5-LOX expressed in Escherichia coli BL21 assessed as conversion of arachidonic acid to 5-HPETE at 10 uM using arachidonic acid as substrate in presence of ATP by UV-vis spectrophotometry analysis relative to control
[3] = target: T2, Polyunsaturated fatty acid 5-lipoxygenase; assay: Inhibition of human recombinant 5-LOX expressed in Escherichia coli BL21 assessed as conversion of arachidonic acid to 5-HPETE using arachidonic acid as substrate in presence of ATP by UV-vis spectrophotometry analysis
[4] = target: T1, Polyunsaturated fatty acid 5-lipoxygenase (Homo sapiens); assay: Inhibition of human recombinant 5-LOX pseudoperoxidase activity expressed in Escherichia coli BL21 assessed as compound redox activity by measuring change in absorption at 10 uM using 13(S)-HpODE as substrate in presence of ATP by UV-vis spectrophotometric method relative to control; set-up: scale not given: the % may be the effect or the level left
[5] = compound: COc1cc(/C=C/C(=O)c2sc(NC(=O)c3ccccc3)nc2C)cc(OC)c1OC; assay: Noncompetitive inhibition of human recombinant 5-LOX expressed in Escherichia coli BL21 assessed as decrease in Vmax for substrate at 5 uM using varying levels arachidonic acid as substrate by Lineweaver-Burk plot analysis (reference value: 0.38 +/- 0.02 nmol/min)
[6] = compound: COc1cc(/C=C/C(=O)c2sc(NC(=O)c3ccccc3)nc2C)cc(OC)c1OC; assay: Noncompetitive inhibition of human recombinant 5-LOX expressed in Escherichia coli BL21 assessed as Km for substrate at 5 uM using varying levels arachidonic acid as substrate by Lineweaver-Burk plot analysis (reference value: 1.9 +/- 0.4 uM)
[7] = compound: COc1cc(/C=C/C(=O)c2sc(NC(=O)c3ccccc3)nc2C)cc(OC)c1OC; assay: Noncompetitive inhibition of human recombinant 5-LOX expressed in Escherichia coli BL21 assessed as Km for substrate at 2 uM using varying levels arachidonic acid as substrate by Lineweaver-Burk plot analysis (reference value: 1.9 +/- 0.4 uM)
[8] = compound: Cc1nc(NC(=O)c2ccccc2)sc1C(=O)/C=C/c1cc2c(cc1Br)OCO2; assay: (§1) Competitive inhibition of human recombinant 5-LOX expressed in Escherichia coli BL21 assessed as Vmax for substrate at 2 uM using varying levels arachidonic acid as substrate by Lineweaver-Burk plot analysis (reference value: 0.33 to 0.45 +/- 0.01 nmol/min)
[9] = compound: COc1ccc(C(=O)Nc2nc(C)c(C(=O)/C=C/c3ccc(C)cc3)s2)cc1; assay: as §1
[10] = compound: COc1cc(/C=C/C(=O)c2sc(NC(=O)c3ccccc3)nc2C)cc(OC)c1OC; assay: Noncompetitive inhibition of human recombinant 5-LOX expressed in Escherichia coli BL21 assessed as decrease in Vmax for substrate at 2 uM using varying levels arachidonic acid as substrate by Lineweaver-Burk plot analysis (reference value: 0.38 +/- 0.02 nmol/min)
[11] = compound: Cc1nc(NC(=O)c2ccccc2)sc1C(=O)/C=C/c1cc2c(cc1Br)OCO2; assay: (§2) Competitive inhibition of human recombinant 5-LOX expressed in Escherichia coli BL21 assessed as increase in Km for substrate at 2 uM using varying levels arachidonic acid as substrate by Lineweaver-Burk plot analysis (reference value: 0.31 to 0.35 +/- 0.08 to 0.10 uM)
[12] = compound: COc1ccc(C(=O)Nc2nc(C)c(C(=O)/C=C/c3ccc(C)cc3)s2)cc1; assay: as §2
[13] = compound: Cc1nc(NC(=O)c2ccccc2)sc1C(=O)/C=C/c1cc2c(cc1Br)OCO2; assay: (§3) Competitive inhibition of human recombinant 5-LOX expressed in Escherichia coli BL21 assessed as increase in Km for substrate at 5 uM using varying levels arachidonic acid as substrate by Lineweaver-Burk plot analysis (reference value: 0.31 to 0.35 +/- 0.08 to 0.10 uM)
[14] = compound: COc1ccc(C(=O)Nc2nc(C)c(C(=O)/C=C/c3ccc(C)cc3)s2)cc1; assay: as §3
[15] = compound: Cc1nc(NC(=O)c2ccccc2)sc1C(=O)/C=C/c1cc2c(cc1Br)OCO2; assay: (§4) Competitive inhibition of human recombinant 5-LOX expressed in Escherichia coli BL21 assessed as Vmax for substrate at 5 uM using varying levels arachidonic acid as substrate by Lineweaver-Burk plot analysis (reference value: 0.33 to 0.45 +/- 0.01 nmol/min)
[16] = compound: COc1ccc(C(=O)Nc2nc(C)c(C(=O)/C=C/c3ccc(C)cc3)s2)cc1; assay: as §4

Molecule | Activity [1] | inhibition [2] | IC50 [3] | Activity [4] | further results
CC(c1cc2ccccc2s1)N(O)C(N)=O (centres undefined) | 10.3% | – | – | – | –
COc1ccc(/C=C/C(=O)c2sc(NC(=O)c3ccccc3)nc2C)cc1 | 7.9% | 58.8% | – | – | –
O=C1O[C@H]([C@@H](O)CO)C(O)=C1O | 60.5% | – | – | – | –
Cc1nc(NC(=O)c2ccccc2)sc1C(=O)/C=C/c1ccc(N(C)C)cc1 | 0% | 88.2% | 640 nM | -12.2% | –
Cc1nc(NC(=O)c2ccccc2)sc1C(=O)/C=C/c1cccs1 | 2.2% | 71.9% | – | – | –
Cc1ccc(/C=C/C(=O)c2sc(NC(=O)c3ccc(F)cc3)nc2C)cc1 | 15% | 91.5% | 540 nM | -56.3% | –
Cc1nc(NC(=O)c2ccc(F)cc2)sc1C(=O)/C=C/c1ccco1 | 8.2% | 65.3% | – | – | –
COc1ccc(C(=O)Nc2nc(C)c(C(=O)/C=C/c3ccc(F)cc3)s2)cc1 | 2.1% | 88.2% | 560 nM | 0.3% | –
Cc1nc(NC(=O)c2ccccc2)sc1C(=O)/C=C/c1ccc(Br)cc1 | 2.4% | 52.3% | – | – | –
COc1cc(/C=C/C(=O)c2sc(NC(=O)c3ccccc3)nc2C)cc(OC)c1OC | 5.7% | 100% | 70 nM | -56.6% | –
Cc1nc(NC(=O)c2ccccc2)sc1C(=O)/C=C/c1ccccc1 | 2.5% | 73.5% | – | – | –
Cc1nc(NC(=O)c2ccccc2)sc1C(=O)/C=C/c1cccc([N+](=O)[O-])c1 | 8.7% | 98% | 240 nM | -40.2% | –
COc1ccc(/C=C/C(=O)c2sc(NC(=O)c3ccccc3)nc2C)cc1OC | 6.4% | 70.2% | – | – | –
Cc1nc(NC(=O)c2ccccc2)sc1C(=O)/C=C/c1ccc(Cl)cc1 | 8.8% | 63.7% | – | – | –
Cc1nc(NC(=O)c2ccccc2)sc1C(=O)/C=C/c1ccco1 | 3.4% | 57.2% | – | – | –
COc1ccc(C(=O)Nc2nc(C)c(C(=O)/C=C/c3ccc(C)cc3)s2)cc1 | 5.5% | 100% | 80 nM | 5.6% | –
Cc1nc(NC(=O)c2ccc(F)cc2)sc1C(=O)/C=C/c1cccs1 | 0% | 81.7% | – | – | –
Cc1nc(NC(=O)c2ccccc2)sc1C(=O)/C=C/c1ccc(F)cc1 | 3% | 98% | 140 nM | -12.5% | –
Cc1nc(NC(=O)c2ccccc2)sc1C(=O)/C=C/c1cc2c(cc1Br)OCO2 | 5.4% | 100% | 120 nM | 1.2% | –
Cc1nc(NC(=O)c2ccc([N+](=O)[O-])cc2)sc1C(=O)/C=C/c1ccc(Cl)cc1 | 2.4% | 48.8% | – | – | –
Cc1ccc(/C=C/C(=O)c2sc(NC(=O)c3ccccc3)nc2C)cc1 | 3% | 75.1% | – | – | –
Cc1nc(NC(=O)c2ccccc2)sc1C(=O)/C=C/c1cccc(Br)c1 | 5.7% | 42.5% | – | – | –
Cc1nc(NC(=O)c2ccc(F)cc2)sc1C(=O)/C=C/c1ccc(N(C)C)cc1 | 3.9% | 70.2% | – | – | –
Cc1nc(NC(=O)c2ccc(F)cc2)sc1C(=O)/C=C/c1cc2c(cc1Br)OCO2 | 5.1% | 50.6% | – | – | –
B1 | – | – | – | – | Vmax [5]: 0.25 nmol/min; Km [6]: 2.1 µM; Km [7]: 1.8 µM; Vmax [8]: 0.43 nmol/min; Vmax [9]: 0.32 nmol/min; Vmax [10]: 0.29 nmol/min; Km [11]: 1.41 µM; Km [12]: 0.43 µM; Km [13]: 2.91 µM; Km [14]: 0.53 µM; Vmax [15]: 0.42 nmol/min; Vmax [16]: 0.31 nmol/min
